Experimental data from the supplement of paper PMC10307832.

compound: C=CCn1c(=O)c2cnc(Nc3ccc(N4CCN(C)CC4)cc3)nc2n1-c1cccc(C(C)(C)O)n1 [Adavosertib] + Nc1nc2[nH]cc(CCc3ccc(C(=O)N[C@@H](CCC(=O)O)C(=O)O)cc3)c2c(=O)[nH]1 [Pemetrexed] (partner 0.2 µM); test: relative viability (nuclei count vs DMSO), 5 days (fraction); higher = more cells survive; details: first compound 0.01 µM
Summary of the method: (§1)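 One day after seeding in 1536-well plates, lung cancer cell lines were dosed by pin tool. Dosing was either single-drug or a fixed anchor-drug dose plus five library-drug doses (not always all listed) in √10 steps. After 5 days, nuclei were stained in one fix-and-stain step and counted on 4× images, and relative viability is the nuclei count of treated wells over that of vehicle wells, given as the median of duplicate plates.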

Cell Line | relative viability
LXF-289 | 0.914
NCI-H23 | 0.664
NCI-H322M | 0.593
NCI-H441 | 0.235
NCI-H460 | 0.0616
NCI-H520 | 0.762
NCI-H596 | 0.497
NCI-H647 | 0.155
NCI-H650 | 0.892
NCI-H661 | 0.915
NCI-H838 | 0.263
NCI-H1355 | 0.984
NCI-H1437 | 0.328
NCI-H1650 | 0.387
NCI-H1651 | 0.564
NCI-H1666 | 0.808

Cell Line | relative viability
NCI-H1734 | 0.409
NCI-H1755 | 0.419
NCI-H1915 | 0.528
NCI-H1975 | 0.263
NCI-H1993 | 0.57
NCI-H2009 | 1.03
NCI-H2023 | 0.114
NCI-H2085 | 0.881
NCI-H2087 | 0.644
NCI-H2126 | 0.615
NCI-H2347 | 0.463
NCI-H3122 | 0.211
PC-14 | 0.151
RERF-LC-KJ | 0.384
SK-LU-1 | 1.03

same assay, conditions: first compound 0.03162 µM

Cell Line | relative viability
LXF-289 | 0.931
NCI-H23 | 0.539
NCI-H322M | 0.625
NCI-H441 | 0.265
NCI-H460 | 0.0693
NCI-H520 | 0.686
NCI-H596 | 0.515
NCI-H647 | 0.159
NCI-H650 | 1.07
NCI-H661 | 0.834
NCI-H838 | 0.22
NCI-H1355 | 1.03
NCI-H1437 | 0.281
NCI-H1650 | 0.366
NCI-H1651 | 0.574
NCI-H1666 | 0.925
NCI-H1734 | 0.39

Cell Line | relative viability
NCI-H1755 | 0.43
NCI-H1915 | 0.464
NCI-H1975 | 0.268
NCI-H1993 | 0.517
NCI-H2009 | 0.987
NCI-H2023 | 0.163
NCI-H2085 | 0.86
NCI-H2087 | 0.634
NCI-H2126 | 0.66
NCI-H2228 | 0.331
NCI-H2347 | 0.422
NCI-H2405 | 1.1
NCI-H3122 | 0.199
PC-3 [JPC-3] | 1.24
PC-14 | 0.121
RERF-LC-KJ | 0.463
SK-LU-1 | 0.967

same assay, conditions: first compound 0.1 µM

Cell Line | relative viability
LXF-289 | 0.856
NCI-H23 | 0.487
NCI-H322M | 0.52
NCI-H441 | 0.275
NCI-H460 | 0.0573
NCI-H520 | 0.616
NCI-H596 | 0.471
NCI-H647 | 0.141
NCI-H650 | 0.952
NCI-H661 | 0.74
NCI-H838 | 0.172
NCI-H1355 | 0.965
NCI-H1437 | 0.309
NCI-H1650 | 0.281
NCI-H1651 | 0.628
NCI-H1666 | 0.82
NCI-H1734 | 0.325

Cell Line | relative viability
NCI-H1755 | 0.43
NCI-H1915 | 0.346
NCI-H1975 | 0.209
NCI-H1993 | 0.608
NCI-H2009 | 1.04
NCI-H2023 | 0.164
NCI-H2085 | 0.901
NCI-H2087 | 0.67
NCI-H2126 | 0.695
NCI-H2228 | 0.361
NCI-H2347 | 0.437
NCI-H2405 | 0.899
NCI-H3122 | 0.188
PC-3 [JPC-3] | 1.26
PC-14 | 0.115
RERF-LC-KJ | 0.481
SK-LU-1 | 0.812

same assay, conditions: first compound 0.3162 µM

Cell Line | relative viability
LXF-289 | 0.722
NCI-H23 | 0.262
NCI-H322M | 0.469
NCI-H441 | 0.225
NCI-H460 | 0.0705
NCI-H520 | 0.297
NCI-H596 | 0.423
NCI-H647 | 0.123
NCI-H650 | 0.774
NCI-H661 | 0.415
NCI-H838 | 0.168
NCI-H1355 | 0.808
NCI-H1437 | 0.229
NCI-H1650 | 0.278
NCI-H1651 | 0.408
NCI-H1666 | 0.695
NCI-H1734 | 0.323

Cell Line | relative viability
NCI-H1755 | 0.392
NCI-H1915 | 0.259
NCI-H1975 | 0.213
NCI-H1993 | 0.629
NCI-H2009 | 0.775
NCI-H2023 | 0.114
NCI-H2085 | 0.998
NCI-H2087 | 0.644
NCI-H2126 | 0.643
NCI-H2228 | 0.2
NCI-H2347 | 0.439
NCI-H2405 | 1.05
NCI-H3122 | 0.173
PC-3 [JPC-3] | 1.12
PC-14 | 0.0767
RERF-LC-KJ | 0.471
SK-LU-1 | 0.536

compound: COc1nc(N)nc2c1ncn2[C@@H]1O[C@H](CO)[C@@H](O)[C@@H]1O [Nelarabine] + CC(C)C[C@H](NC(=O)[C@H](Cc1ccccc1)NC(=O)c1cnccn1)B(O)O [Bortezomib] (partner 0.002 µM); test: as above; details: first compound 0.01 µM
Summary of the method: as §1

Cell Line | relative viability
LXF-289 | 1.13
NCI-H23 | 1.38
NCI-H322M | 1.29
NCI-H441 | 0.357
NCI-H520 | 0.67
NCI-H596 | 0.906
NCI-H647 | 1.28
NCI-H650 | 1.13
NCI-H661 | 0.986
NCI-H838 | 1.06
NCI-H1355 | 1.39
NCI-H1437 | 0.678
NCI-H1650 | 0.173
NCI-H1651 | 1
NCI-H1666 | 1.02
NCI-H1734 | 1.1
NCI-H1755 | 1.02
NCI-H1915 | 1.25
NCI-H1975 | 0.362
NCI-H1993 | 1.25
NCI-H2009 | 1.24
NCI-H2023 | 1.28
NCI-H2085 | 1.07
NCI-H2087 | 1.08
NCI-H2126 | 1.18
NCI-H2228 | 1.45
